Measured values from BindingDB's records for PubMed 11714892 (Recordati, 2001).

What was measured:
[1] = molecular target: T1, 5-hydroxytryptamine receptor 1A (Rattus norvegicus, UniProt P19327)
T1 sequence (P19327 whole entry): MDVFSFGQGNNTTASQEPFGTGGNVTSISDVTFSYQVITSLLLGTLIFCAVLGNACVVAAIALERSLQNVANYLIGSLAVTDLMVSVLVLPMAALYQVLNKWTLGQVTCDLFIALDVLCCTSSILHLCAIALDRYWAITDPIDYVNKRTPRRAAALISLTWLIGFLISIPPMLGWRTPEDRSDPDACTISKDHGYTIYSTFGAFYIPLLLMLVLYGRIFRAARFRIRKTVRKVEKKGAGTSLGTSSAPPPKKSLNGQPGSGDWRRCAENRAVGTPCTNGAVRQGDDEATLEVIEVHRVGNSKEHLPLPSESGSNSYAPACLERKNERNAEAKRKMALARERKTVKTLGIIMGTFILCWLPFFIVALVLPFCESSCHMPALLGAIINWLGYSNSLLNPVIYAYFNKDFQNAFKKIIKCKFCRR

[2] = molecular target: T2, Alpha-1A adrenergic receptor (Homo sapiens, UniProt P35348)
T2 sequence (P35348 whole entry): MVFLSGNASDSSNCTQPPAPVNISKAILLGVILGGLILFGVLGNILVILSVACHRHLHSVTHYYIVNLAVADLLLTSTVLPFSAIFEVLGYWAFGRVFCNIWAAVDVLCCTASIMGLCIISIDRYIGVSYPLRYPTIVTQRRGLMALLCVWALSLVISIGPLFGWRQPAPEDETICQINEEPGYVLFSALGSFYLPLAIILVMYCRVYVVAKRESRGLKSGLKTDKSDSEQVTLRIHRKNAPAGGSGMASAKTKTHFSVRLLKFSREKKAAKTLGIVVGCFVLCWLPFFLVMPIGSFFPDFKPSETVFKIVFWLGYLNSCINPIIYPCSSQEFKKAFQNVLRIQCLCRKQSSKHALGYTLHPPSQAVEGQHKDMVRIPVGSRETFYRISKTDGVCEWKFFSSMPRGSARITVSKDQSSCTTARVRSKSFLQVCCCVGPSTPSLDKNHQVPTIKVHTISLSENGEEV

[3] = molecular target: T3, Alpha-1B adrenergic receptor (Homo sapiens, UniProt P35368)
T3 sequence (P35368 whole entry): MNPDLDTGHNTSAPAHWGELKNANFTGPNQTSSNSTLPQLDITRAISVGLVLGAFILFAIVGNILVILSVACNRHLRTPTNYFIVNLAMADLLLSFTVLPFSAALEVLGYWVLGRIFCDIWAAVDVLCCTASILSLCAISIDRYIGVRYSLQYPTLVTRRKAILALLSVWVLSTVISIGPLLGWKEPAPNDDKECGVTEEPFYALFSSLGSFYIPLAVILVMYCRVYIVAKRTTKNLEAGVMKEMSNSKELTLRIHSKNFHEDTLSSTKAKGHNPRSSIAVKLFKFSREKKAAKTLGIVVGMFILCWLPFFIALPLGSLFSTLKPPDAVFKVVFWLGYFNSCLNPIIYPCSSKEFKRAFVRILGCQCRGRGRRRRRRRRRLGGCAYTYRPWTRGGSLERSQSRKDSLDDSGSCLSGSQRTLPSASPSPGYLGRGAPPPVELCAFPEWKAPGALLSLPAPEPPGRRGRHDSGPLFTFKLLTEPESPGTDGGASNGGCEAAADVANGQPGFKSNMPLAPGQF

[4] = molecular target: T4, Alpha-1D adrenergic receptor (Homo sapiens, UniProt P25100)
T4 sequence (P25100 whole entry): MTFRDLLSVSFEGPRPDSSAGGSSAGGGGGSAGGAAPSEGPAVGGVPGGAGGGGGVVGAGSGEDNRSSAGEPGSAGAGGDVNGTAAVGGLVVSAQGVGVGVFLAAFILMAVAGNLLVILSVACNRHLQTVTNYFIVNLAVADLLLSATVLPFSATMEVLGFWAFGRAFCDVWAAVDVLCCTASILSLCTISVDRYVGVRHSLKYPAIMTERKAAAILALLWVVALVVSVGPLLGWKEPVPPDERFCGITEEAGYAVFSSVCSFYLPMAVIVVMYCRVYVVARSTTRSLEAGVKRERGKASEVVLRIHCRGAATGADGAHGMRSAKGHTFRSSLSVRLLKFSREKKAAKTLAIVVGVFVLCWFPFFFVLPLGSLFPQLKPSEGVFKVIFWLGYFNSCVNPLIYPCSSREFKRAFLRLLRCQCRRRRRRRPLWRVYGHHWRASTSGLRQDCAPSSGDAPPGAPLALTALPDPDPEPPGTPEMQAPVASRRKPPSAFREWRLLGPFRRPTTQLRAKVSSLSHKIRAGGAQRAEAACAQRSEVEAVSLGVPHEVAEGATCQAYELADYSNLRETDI

Molecule COc1ccccc1N1CCN(CCN(C(=O)C2CCCCC2)c2ccccc2[N+](=O)[O-])CC1 [N-[2-[4-(2-methoxyphenyl)-1-piperazinyl]-ethyl]-N-(2-nitrophenyl)cyclohexanecarboxamide] has a Ki [1] of 0.7 nM, a Ki [2] of 81 nM and a Ki [3] of 105 nM. It also gave a Ki [4] of 5.7 nM.
